Test results as given in the supplement of paper PMC10307832.

What was measured:
Test in all cases: relative viability (nuclei count vs DMSO), 5 days (fraction); higher = more cells survive
Linifanib + Crizotinib = compound: Cc1ccc(F)c(NC(=O)Nc2ccc(-c3cccc4[nH]nc(N)c34)cc2)c1 [Linifanib] + C[C@@H](Oc1cc(-c2cnn(C3CCNCC3)c2)cnc1N)c1c(Cl)ccc(F)c1Cl [Crizotinib] (partner 1 µM)
In short: (§1)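 After 5 days of treatment, lung cancer cells in 1536-well plates were fixed and stained in a single step (final 0.05% Triton X-100, 1% formaldehyde, 1 ug/ml Hoechst) and their nuclei counted on 4× images. Treatment had been applied by pin tool the day after seeding as one drug alone or as a fixed anchor-drug dose with five library-drug doses (not always all listed) in √10 steps. Relative viability is the nuclei count of treated wells divided by that of vehicle wells, and values are medians of duplicate plates.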

Linifanib + OSI-027 = compound: Cc1ccc(F)c(NC(=O)Nc2ccc(-c3cccc4[nH]nc(N)c34)cc2)c1 [Linifanib] + COc1cccc2cc(-c3nc([C@H]4CC[C@H](C(=O)O)CC4)n4ncnc(N)c34)[nH]c12 [OSI-027] (partner 0.5 µM)
In short: as §1

Linifanib + Olaparib = compound: Cc1ccc(F)c(NC(=O)Nc2ccc(-c3cccc4[nH]nc(N)c34)cc2)c1 [Linifanib] + O=C(c1cc(Cc2n[nH]c(=O)c3ccccc23)ccc1F)N1CCN(C(=O)C2CC2)CC1 [Olaparib] (partner 8 µM)
In short: as §1

Linifanib + Luminespib = compound: Cc1ccc(F)c(NC(=O)Nc2ccc(-c3cccc4[nH]nc(N)c34)cc2)c1 [Linifanib] + CCNC(=O)c1noc(-c2cc(C(C)C)c(O)cc2O)c1-c1ccc(CN2CCOCC2)cc1 [Luminespib] (partner 0.01 µM)
In short: as §1

Linifanib + AZD7762 = compound: Cc1ccc(F)c(NC(=O)Nc2ccc(-c3cccc4[nH]nc(N)c34)cc2)c1 [Linifanib] + NC(=O)Nc1cc(-c2cccc(F)c2)sc1C(=O)N[C@H]1CCCNC1 [AZD7762] (partner 0.2 µM)
In short: as §1

Linifanib = compound: Cc1ccc(F)c(NC(=O)Nc2ccc(-c3cccc4[nH]nc(N)c34)cc2)c1 [Linifanib]
In short: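 Vehicle-anchored 1536-well plates of lung cancer cell lines, held overnight at 37 °C, were pinned with five library-drug doses (not always all listed) spaced by √10. No medium change followed over the next 5 days, after which the cells were fixed, permeabilised and Hoechst-stained together and imaged at 4×. Nuclei were counted with MetaXpress, and viability is treated-well nuclei over vehicle-well nuclei, taken as a median across plates. Plates passed with control CV below 25% and at least one doubling.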

Cell Line	relative viability (Linifanib + Crizotinib; first compound 0.03162 µM)	relative viability (Linifanib + Crizotinib; first compound 0.1 µM)	relative viability (Linifanib + Crizotinib; first compound 0.3162 µM)	relative viability (Linifanib + OSI-027; first compound 0.03162 µM)	relative viability (Linifanib + OSI-027; first compound 0.1 µM)	relative viability (Linifanib + OSI-027; first compound 0.3162 µM)	relative viability (Linifanib + Olaparib; first compound 0.03162 µM)	relative viability (Linifanib + Olaparib; first compound 0.1 µM)	relative viability (Linifanib + Olaparib; first compound 0.3162 µM)	relative viability (Linifanib + Luminespib; first compound 0.03162 µM)	relative viability (Linifanib + Luminespib; first compound 0.1 µM)	relative viability (Linifanib + Luminespib; first compound 0.3162 µM)	relative viability (Linifanib + AZD7762; first compound 0.03162 µM)	relative viability (Linifanib + AZD7762; first compound 0.1 µM)	relative viability (Linifanib + AZD7762; first compound 0.3162 µM)	relative viability (Linifanib; 0.03162 µM)	relative viability (Linifanib; 0.1 µM)	relative viability (Linifanib; 0.3162 µM)
LC-2-ad	0.588	0.404	0.381	0.722	0.951	0.855	0.729	0.705	0.55	0.968	0.958	1.05	0.871	0.878	0.804	0.996	0.996	0.88
BEN	0.897	0.924	0.791	0.28	0.295	0.311	1.11	0.942	0.985	0.276	0.49	0.233	0.693	0.78	0.764	0.888	1.16	0.915
NCI-H1944	1.1	1.12	0.997	0.405	0.462	0.409	0.42	0.434	0.367	0.67	0.727	0.733	0.43	0.65	0.479	0.931	1.08	0.963
HCC-827	0.957	0.957	0.884	0.82	0.93	0.716	0.651	0.711	0.654	0.549	0.669	0.622	0.204	0.231	0.275	1	1.06	1.02
HCC-44	0.839	0.831	0.733	0.62	0.596	0.478	1.02	0.916	0.952	0.903	0.954	1.05	1.09	0.914	1.04	1.05	0.95	0.944
ChaGo-K-1	1.13	1.14	1.08	0.584	0.602	0.673	0.456	0.445	0.448	0.636	0.777	0.563	0.881	0.881	0.925	1.07	1.01	0.983
NCI-H647	0.963	1.12	0.857	0.703	0.795	0.587	0.678	0.68	0.54	0.149	0.325	0.114	0.435	0.557	0.389	1.05	1.05	0.945
HOP-62	0.924	1.04	0.968	0.982	0.874	0.767	0.546	0.243	0.534	0.927	0.964	0.866	0.569	0.586	0.4	1.06	1.03	0.974
NCI-H1666	0.971	0.989	0.966	0.882	0.903	0.784	0.809	0.716	0.766	1.03	1.04	0.999	0.941	0.854	0.833	0.986	1.03	0.939
SW 900				0.507	0.808	0.47	0.909	1.04	0.75	0.168	0.172	0.153	0.523	0.656	0.533	0.912	1.02	0.865
PC-3 [JPC-3]	1	1.01	0.986	0.702	0.771	0.659	1.09	1.14	1.13	0.744	0.731	0.579	0.796	0.856	0.776	1.06	1.03	0.939
NCI-H661	1.12	1.23	0.906	0.726	0.714	0.647	0.771	0.783	0.7	0.922	0.907	0.926				1.02	0.977	0.962
NCI-H2085	0.863	1.03	0.818	0.842	0.733	0.758	0.727	0.803	0.739	0.4	0.481	0.384	1.08	0.943	0.974	1.02	1.06	1.01
NCI-H2126	1.03	1.04	0.975	0.742	0.747	0.665	0.986	0.912	0.9	0.896	0.967	0.91	1.02	1.06	0.983	1.02	1.01	0.972
NCI-H460	0.95	1.16	0.909	0.682	0.768	0.611	0.539	0.464	0.471	0.0304	0.0311	0.0301	0.614	0.555	0.562	0.984	1.03	0.92
NCI-H596	0.913	0.902	1.05	0.625	0.879	0.71	0.633	0.615	0.724	1.02	1.1	1.17	1.16	1.28	1.15	0.94	1.03	0.884
LK-2	0.216	0.195	0.219	0.212	0.21	0.261	0.694	0.759	0.732	0.189	0.201	0.232	0.618	0.504	0.376	1.05	1.12	0.965
UMC-11	0.657	0.604	0.598	0.446	0.465	0.45	0.388	0.485	0.374	0.958	1.1	1.08				0.979	1.02	0.878

Cell Line	relative viability (Linifanib + Crizotinib; first compound 0.03162 µM)	relative viability (Linifanib + Crizotinib; first compound 0.1 µM)	relative viability (Linifanib + Crizotinib; first compound 0.3162 µM)	relative viability (Linifanib + OSI-027; first compound 0.03162 µM)	relative viability (Linifanib + OSI-027; first compound 0.1 µM)	relative viability (Linifanib + OSI-027; first compound 0.3162 µM)	relative viability (Linifanib + Olaparib; first compound 0.03162 µM)	relative viability (Linifanib + Olaparib; first compound 0.1 µM)	relative viability (Linifanib + Olaparib; first compound 0.3162 µM)	relative viability (Linifanib + Luminespib; first compound 0.03162 µM)	relative viability (Linifanib + Luminespib; first compound 0.1 µM)	relative viability (Linifanib + Luminespib; first compound 0.3162 µM)	relative viability (Linifanib + AZD7762; first compound 0.03162 µM)	relative viability (Linifanib + AZD7762; first compound 0.1 µM)	relative viability (Linifanib + AZD7762; first compound 0.3162 µM)	relative viability (Linifanib; 0.03162 µM)	relative viability (Linifanib; 0.1 µM)	relative viability (Linifanib; 0.3162 µM)
RERF-LC-KJ	0.833	0.778	0.745	0.572	0.654	0.616	0.875	1.08	0.892	1.3	1.28	1.25	1.03	1.01	0.938	1.04	0.989	0.96
HCC-78	0.373	0.376	0.319	0.391	0.396	0.344	0.946	0.77	0.943				0.629	0.595	0.599	0.99	1.17	0.885
NCI-H1755	0.888	0.957	0.841	0.753	0.827	0.669	0.875	0.903	0.835	0.586	0.599	0.447	0.457	0.505	0.495	1.03	1.06	0.987
HCC-366	0.558	0.69	0.454	0.898	1.29	0.795	0.337	0.458	0.323				0.181	0.243	0.221	1.06	1.05	0.949
NCI-H2405	0.855	0.86	0.85	0.667	0.66	0.624	0.94	0.835	0.828	0.626	0.933	0.741	0.71	0.777	0.803	1.08	1.04	0.966
COR-L 105	0.796	0.941	0.797	0.698	0.874	0.602	0.66	0.584	0.754	0.807	0.889	0.556				0.975	0.97	0.904
NCI-H1395				0.611	0.756	0.573	0.462	0.463	0.461	0.684	0.824	0.622	0.39	0.431	0.395	0.956	0.983	0.868
NCI-H1915	0.9	0.923	0.838	0.668	0.688	0.616	0.264	0.26	0.255	0.826	0.804	0.679	0.743	0.701	0.681	1.03	1.02	0.934
NCI-H1650	0.955	1.17	0.864	0.752	0.78	0.585	0.78	0.971	0.753	0.2	0.188	0.205				0.965	0.966	0.89
SK-LU-1	1.03	0.958	0.864	0.387	0.472	0.337	0.467	0.558	0.456	0.195	0.181	0.227				1.07	1.11	1.01
NCI-H520	0.799	1.09	0.757	0.271	0.313	0.3	0.286	0.32	0.36	0.171	0.204	0.226				0.862	1.07	0.955
NCI-H1793				0.254	0.296	0.267	0.848	1.13	0.802	0.169	0.173	0.199	0.269	0.844	0.541	0.908	1.08	0.941
NCI-H2023	0.679	0.774	0.544	0.426	0.539	0.37	0.518	0.615	0.46	0.7	0.925	0.757				0.972	1.09	1.02
SW 1573	0.784	0.91	0.74	0.648	0.665	0.625	0.463	0.498	0.505	0.162	0.26	0.253				0.98	1.08	0.963
SK-MES-1	1.01	1.03	0.81	0.625	0.613	0.595	0.636	0.795	0.71	0.79	0.769	0.639				0.969	1.08	0.965
NCI-H2009	1.07	1.08	0.526	0.705	0.673	0.644	0.675	0.705	0.671	1.03	1.05	0.965				1.08	0.972	0.987
COR-L23	0.716	0.657	0.531	0.875	0.786	0.722	0.337	0.384	0.302	0.673	0.892	0.705				1.1	1.11	1
NCI-H2228	0.496	0.508	0.453	0.647	0.747	0.663	0.58	1.08	0.621	0.15	0.155	0.17				0.993	1.3	1.03
